# Assay results from PubChem BioAssay (NCI).
#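 Five compound concentrations were applied to cells in 96-well plates for 48 hours; endpoints were derived by simple linear interpolation of the resulting dose-response curve. TGI marks complete inhibition of growth.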
# What was measured:
# Assay in all cases: DTP human tumour cell line panel, 48 h
# EKVX NSCLC = tested on: EKVX NSCLC
# ACHN renal = tested on: ACHN renal
# MDA-MB-231 breast = tested on: MDA-MB-231 breast
# HOP-92 NSCLC = tested on: HOP-92 NSCLC
# PC-3 prostate = tested on: PC-3 prostate
# HCT-116 colon = tested on: HCT-116 colon
# HS 578T breast = tested on: HS 578T breast
# SF-295 CNS = tested on: SF-295 CNS
# HCT-15 colon = tested on: HCT-15 colon
# RPMI-8226 leukemia = tested on: RPMI-8226 leukemia
Structure (SMILES),TGI (EKVX NSCLC),TGI (ACHN renal),TGI (MDA-MB-231 breast),TGI (HOP-92 NSCLC),TGI (PC-3 prostate),TGI (HCT-116 colon),TGI (HS 578T breast),TGI (SF-295 CNS),TGI (HCT-15 colon),TGI (RPMI-8226 leukemia)
N=c1c2c(=S)n(-c3ccccc3)c(=S)n(-c3ccccc3)c2nc(SCCN2CCOCC2)n1-c1ccccc1,9.58 µM,3.5 µM,4.73 µM,4.12 µM,3.35 µM,3.45 µM,> 100 µM,19.2 µM,4.09 µM,3.97 µM
Cc1ccc(S(=O)(=O)N2CCNCCN(S(=O)(=O)c3ccc(C)cc3)CCN(S(=O)(=O)c3ccc(C)cc3)CC2)cc1,> 100 µM,> 100 µM,> 100 µM,> 100 µM,> 100 µM,> 100 µM,> 100 µM,> 100 µM,> 100 µM,> 100 µM
NC1CC(=O)c2sccc21 (stereo not given),> 100 µM,> 100 µM,> 100 µM,> 100 µM,> 100 µM,> 100 µM,> 100 µM,> 100 µM,> 100 µM,> 100 µM
C#CCn1c(=O)c(Cl)cn(/C(=C/C(=O)OCC)C(=O)OCC)c1=O,34.3 µM,3.93 µM,35.1 µM,22 µM,31.5 µM,14.4 µM,> 100 µM,> 66.7 µM,25.2 µM,5.28 µM
CCN(CC)CCCOc1cc2c(cc1OC)C(=O)N1CCC[C@H]1C=N2,> 100 µM,> 100 µM,> 100 µM,70.9 µM,> 100 µM,> 100 µM,> 100 µM,75.5 µM,> 100 µM,53.8 µM
N#Cc1nc(CCC(c2nc(C#N)c(N)o2)N2C(=O)c3ccccc3C2=O)oc1N (stereo not given),> 100 µM,> 100 µM,> 100 µM,> 100 µM,> 100 µM,> 100 µM,> 100 µM,> 100 µM,> 100 µM,> 100 µM
c1ccc(C(CCN2CC3CCC(CC3)C2)c2ccccc2)cc1,> 100 µM,57.8 µM,38.3 µM,64.4 µM,> 100 µM,63.8 µM,50.5 µM,55 µM,45.4 µM,36.7 µM
CC(=O)OCC1=C(C)C[C@H]([C@@H](COC(C)=O)C2CCC3C4C[C@H]5O[C@]56CC=CC(=O)[C@]6(C)C4CC[C@@]32C)OC1=O (stereo not given in full),1.36 µM,2.68 µM,1.91 µM,2.87 µM,1.27 µM,0.3 µM,17.8 µM,5.59 µM,0.296 µM,0.181 µM
COC(=O)c1cc(C(=CCC[C@H]2CC[C@@]3(C)C(CCC4C3CC[C@@]3(C)C4CC[C@@H]3C(C)CCCC(C)C)C2)c2cc(Cl)c(OC(=O)c3ccccc3)c(C(=O)OC)c2)cc(Cl)c1OC(=O)c1ccccc1 (stereo not given in full),> 10 µM,> 10 µM,> 10 µM,> 10 µM,> 10 µM,> 10 µM,> 10 µM,> 10 µM,> 10 µM,> 10 µM
Cc1nc2ccccc2n1Cc1nnc(N)o1,> 100 µM,> 100 µM,> 100 µM,> 100 µM,> 100 µM,> 100 µM,> 100 µM,> 100 µM,> 100 µM,> 100 µM
Cc1cc2nc(N3C(=O)/C(=C/c4ccc(Cl)cc4)N=C3c3ccccc3)sc2cc1C,91.2 µM,> 100 µM,> 100 µM,56.5 µM,98.9 µM,53.9 µM,74.2 µM,> 100 µM,> 100 µM,> 100 µM
c1ccc2nc(CCC3CCCCN3)ccc2c1 (stereo not given),> 100 µM,> 100 µM,> 100 µM,> 100 µM,> 100 µM,> 100 µM,> 100 µM,> 100 µM,> 100 µM,> 100 µM
COc1cc2c(cc1OCCCC(=O)Nc1cc(C(=O)NCCCN(C)C)n(C)n1)N=CC1CCCN1C2=O (stereo not given),> 62 µM,12.6 µM,> 39.9 µM,13.2 µM,50.4 µM,> 37.7 µM,> 100 µM,> 100 µM,> 21.5 µM,17.6 µM
C#CC(O)/C=C/C(O)CCCC(O)CC#CC(O)C#CC(O)CCCC(O)/C=C/CCCC(=O)CCCCCCCCCCCCCCCC(O)C(O)C#CC(=O)O (stereo not given),> 50 µM,> 50 µM,> 50 µM,> 50 µM,> 50 µM,> 50 µM,> 50 µM,> 50 µM,> 50 µM,> 50 µM
COc1cc2c(cc1OC)-c1cc3cc(OC)c(OC)cc3c(=O)n1CC2,> 100 µM,> 86 µM,> 70.4 µM,10.5 µM,> 100 µM,> 53.4 µM,> 57.5 µM,> 100 µM,> 100 µM,47.2 µM
O=C1c2ccccc2-c2nc(/C=C/c3ccccc3)cc3c2c1nc1ccccc13,> 100 µM,> 100 µM,74 µM,> 100 µM,> 100 µM,> 100 µM,62.6 µM,> 100 µM,40.8 µM,> 100 µM
O=C(OCCC12CC3CC(CC(C3)C1)C2)c1ccc(NCc2cc(O)ccc2O)cc1,4.88 µM,5.18 µM,5.31 µM,16.8 µM,14.5 µM,5.68 µM,0.542 µM,5.25 µM,3.53 µM,0.666 µM
Clc1nc(Cl)c(CBr)c(Cl)n1,48.9 µM,15.7 µM,4.04 µM,5.07 µM,17.7 µM,5.55 µM,> 56.8 µM,16.1 µM,7.91 µM,4.06 µM
CC(Cc1ccccc1)NC1=NCCO1 (stereo not given),> 100 µM,> 100 µM,30.1 µM,69.1 µM,> 100 µM,32.4 µM,> 100 µM,> 100 µM,> 100 µM,67.3 µM
CC(=O)O[C@H]1C[C@H]2C(=S)Nc3ccccc3C(=S)N2C1,> 100 µM,> 100 µM,> 100 µM,> 100 µM,> 100 µM,> 100 µM,> 100 µM,> 100 µM,> 100 µM,> 100 µM
Clc1ncc(Cl)c(Cl)n1,30.3 µM,3.63 µM,7.82 µM,3.43 µM,5.64 µM,8.01 µM,14.9 µM,26.6 µM,5.99 µM,6.47 µM
O=C(N/N=C\c1ccccc1)Nc1cccc2ccccc12,> 100 µM,39 µM,> 100 µM,> 100 µM,86.5 µM,> 100 µM,66.7 µM,77.1 µM,> 100 µM,> 100 µM
CCOC(=O)Cn1c(=O)c2cc(-c3ccccc3)cc3c(Cl)nc4c(OC)c(OC)cc1c4c32,> 59.2 µM,> 65.5 µM,> 100 µM,54.6 µM,55.4 µM,29.1 µM,> 27.7 µM,> 100 µM,32.2 µM,46.8 µM
NC(=O)CC(N=C1C(=O)OC(C(O)CO)C1=NC(CC(N)=O)C(=O)O)C(=O)O (stereo not given),> 100 µM,> 100 µM,> 100 µM,> 100 µM,> 100 µM,> 100 µM,> 100 µM,> 100 µM,> 100 µM,> 100 µM
Nc1ccc(Oc2ccc(C34CC5CC6C3CC3CC4C(C5)C6(c4ccc(Oc5ccc(N)c(O)c5)cc4)C3)cc2)cc1O,22.2 µM,14.3 µM,14.9 µM,8.41 µM,11.9 µM,11.1 µM,80.5 µM,15.3 µM,25 µM,7.94 µM
c1ccc(-c2cc(-c3cccs3)c(-c3cccs3)o2)cc1,> 100 µM,> 100 µM,> 100 µM,> 100 µM,> 100 µM,> 100 µM,> 100 µM,> 100 µM,> 100 µM,> 100 µM
CCc1nc2ccc(C(F)(F)F)cc2[nH]c1=O,> 100 µM,> 100 µM,> 100 µM,> 100 µM,> 100 µM,> 100 µM,> 100 µM,> 100 µM,> 100 µM,> 100 µM
O=[N+]([O-])c1ccc2c(c1)c(S(=O)(=O)O)cc1nonc12,> 100 µM,> 100 µM,> 100 µM,> 100 µM,> 100 µM,> 100 µM,> 100 µM,> 100 µM,> 100 µM,> 100 µM
